Values joined by “and” are separate entries in the source; they are usually repeats but may differ in a detail not shown here. Equal entries are not always repeated.
Legend:
[1] = system: Neospora caninum NC-1; test: Microtiter Monolayer Disruption Assay (MMDA), Neospora caninum; format: cell-based, Neospora caninum strain NC-1; settings: BT cells
Method: (§1) In order to determine the scope of protection provided by Ponazuril, in vitro testing was conducted. The following strains of parasites were evaluated for their sensitivity to this compound: Strain SN3 of Sarcocystis neurona; strain SF1 of Sarcocystis falcatula; strain RH of Toxoplasma gondii; and the NC-1 strain of Neospora caninum. […]
(§2) Bovine turbinate (BT) cells were used for all in vitro studies. Cells were grown to confluency in 25 cm^2 flasks in RMPI 1640 media supplemented with 10% v/v fetal bovine serum (FBS), 100 Units penicillin (G/mL), […] streptomycin/mL and 5×10^-2 mM 2-mercpatoethanol. After cell confluence was obtained, cells were maintained in the same media with reduced FBS (2% v/v). Cell cultures were incubated at 37 C. in a humidified atmosphere containing 5% carbon dioxide and 95% air.
(§3) For growth of parasites, BT cell monolayers were infected with parasites and examined with an inverted microscope for the development of lesions (cytopathic effect, "CPE") or the presence of many extracellular merozoites. Once lesions were observed, or many extracellular parasites were present, the monolayer was scraped with the tip of a 5 mL pipette and 1 to 3 drops of the merozoite-containing fluid was transferred to two flasks of fresh BT cells. Merozoites of S. neurona and S. falcatula were passaged in this manner every 5 to 10 days while the tachyzoites of T. gondii and N. caninum were passaged every 3 to 4 days.
(§4) The assay used to determine the effectiveness of Ponazuril was the Microtiter Monolayer Disruption Assay (MMDA). This assay was used to determine if the parasites or compound were toxic for BT cells. Flat bottomed 96-well microtiter plates were inoculated with BT cells and the resulting monolayers were used to determine the effects of Toltrazuril and Ponazuril on merozoite production as measured by CPE (plaque formation). […]

[2] = Drug levels in serum after repeated doses of Toltrazuril in horses; format: in vivo; design: unit not given here; settings: for AVG drug level in serum, 48 Hrs / AVG drug level in serum, 96 Hrs / AVG drug level in serum, 240 Hrs: group average; for Drug level in serum, 48 Hrs / Drug level in serum, 96 Hrs / Drug level in serum, 240 Hrs: individual horse
Method: (§5) This experiment was conducted in order to determine whether triazineones such as Toltrazuril can pass the blood-brain barrier. Normal horses were divided into three groups of three horses per group. Group 1 horses received Toltrazuril administered orally as a 5% suspension at a dose level of 2.5 mg/Kg. Group 2 horses received Toltrazuril administered orally as a 5% suspension at a dose level of 5.0 mg/Kg. Group 3 horses received Toltrazuril administered orally as a 5% suspension at a dose level of 7.5 mg/Kg. The dosing was repeated daily for 10 days. Blood samples were drawn at 48, 96 and 240 hours and the concentration of Toltrazuril, Toltrazuril sulfoxide and Ponazuril in the serum was measured. Ten days after the start of the treatment (Day 10), a sample of cerebral spinal fluid was removed from each horse and the concentrations of Toltrazuril, Toltrazuril Sulfoxide and Ponazuril were again measured in these samples. The concentrations of Toltrazuril, Toltrazuril Sulfoxide and Ponazuril in the serum and cerebral spinal fluid are reported in TABLES 5a and 5b.

[3] = Drug levels in cerebral spinal fluid after repeated doses of Toltrazuril in horses; format: in vivo; design: Drug level in Cerebral Spinal Fluid, Day 10 / AVG drug level in Cerebral Spinal Fluid, Day 10: unit not given here; settings: for AVG drug level in Cerebral Spinal Fluid, Day 10: group average; for Drug level in Cerebral Spinal Fluid, Day 10: individual horse
Method: as §5

[4] = system: Bovine turbinate (BT) cells; format: cell-based; settings: uninfected BT cells
Method: as §2, §4

[5] = Pharmacokinetics of a single oral dose of Toltrazuril in horses (blood levels); format: in vivo; settings: single oral dose of Toltrazuril 10 mg/kg
Method: A pharmacokinetic study was conducted in horses comparing blood levels of Toltrazuril, Ponazuril and Toltrazuril Sulfoxide at various times post a single dose of Toltrazuril. All horses received a single dose of 10 mg/kg, which was administered orally as a suspension. Blood samples were drawn at the time of treatment (0) and at 0.25, 0.5, 1, 2, 4, 6, 12, 24, 48 and 72 hours post treatment. […] This was an indication that Ponazuril, alone, would produce acceptable blood levels that are envisioned to pass the blood-brain barrier, a characteristic required to treat neurological diseases such as those caused by Sarcocystis neurona, Toxoplasma gondii, Neospora caninum and Neospora

[6] = system: Sarcocystis neurona; test: Microtiter Monolayer Disruption Assay (MMDA), Sarcocystis neurona; format: cell-based, Sarcocystis neurona strain SN3; settings: BT cells
Method: as §1, §2, §3
The assay used to determine the effectiveness of Ponazuril was the Microtiter Monolayer Disruption Assay (MMDA). This assay was used to determine if the parasites or compound were toxic for BT cells. Flat bottomed 96-well microtiter plates were inoculated with BT cells and the resulting monolayers were used to determine the effects of Toltrazuril and Ponazuril on merozoite production as measured by CPE (plaque formation). Monolayers were inoculated with parasites (S. neurona or S. falcatula at a count of 50,000/well, T. gondii at a level of 10,000/well, and N. caninum at 20,000/well. All wells were inoculated with the test compound 2 hours after infection. Untreated and […] monolayer wells served as parasite controls and uninfected agent treated BT cells served as toxicity controls. Each treatment was examined in replicates of 6. Each well was visually monitored daily and the assay was stopped when 90-100% of the untreated merozoite infected cells had lysed (90-100% CPE). All wells of the plates were rinsed in Phosphate Buffered Saline (PBS) and fixed in 100% methanol for 5 minutes after which they were stained in crystal violet solution. […]

[7] = Toltrazuril 2.5 mg/Kg oral daily for 10 days
[8] = Toltrazuril 5.0 mg/Kg oral daily for 10 days
[9] = Toltrazuril 7.5 mg/Kg oral daily for 10 days

With `Cc1cc(-n2c(=O)[nH]c(=O)n(C)c2=O)ccc1Oc1ccc(S(=O)(=O)C(F)(F)F)cc1` [Ponazuril] the inhibition at 0.001 µg/mL ([1]; 0.001 μg/mL, read-out: Percent Inhibition of Cell Destruction, 0.001 μg/mL) was 3%, the inhibition at 0.01 µg/mL ([1]; 0.01 μg/mL, read-out: Percent Inhibition of Cell Destruction, 0.01 μg/mL) was 13% and the inhibition at 1 µg/mL ([1]; 1.0 μg/mL, read-out: Percent Inhibition of Cell Destruction, 1.0 μg/mL) was 100%. The “AVG drug level in serum, 48 Hrs” value [2, 7] was 1.41, the “AVG drug level in serum, 96 Hrs” value [2, 7] was 1.76 and the “AVG drug level in serum, 240 Hrs” value [2, 7] was 3.00. For the same molecule, the “Drug level in serum, 48 Hrs” value [2, 7] was 0.29 and 0.24 and 3.70, the “Drug level in serum, 96 Hrs” value [2, 7] was 0.99 and 1.15 and 3.13 and the “Drug level in serum, 240 Hrs” value [2, 7] was 2.61 and 2.36 and 4.04. For the same molecule, the “AVG drug level in serum, 48 Hrs” value [2, 8] was 0.53, the “AVG drug level in serum, 96 Hrs” value [2, 8] was 2.26 and the “AVG drug level in serum, 240 Hrs” value [2, 8] was 5.02. The “Drug level in serum, 48 Hrs” value [2, 8] was 0.48 and 0.63, the “Drug level in serum, 96 Hrs” value [2, 8] was 2.09 and 2.03 and 2.66 and the “Drug level in serum, 240 Hrs” value [2, 8] was 5.44 and 2.03 and 5.61. For the same molecule, the “AVG drug level in serum, 48 Hrs” value [2, 9] was 2.55, the “AVG drug level in serum, 96 Hrs” value [2, 9] was 2.89 and the “AVG drug level in serum, 240 Hrs” value [2, 9] was 6.58. The “Drug level in serum, 48 Hrs” value [2, 9] was 6.35 and 0.78 and 0.52, the “Drug level in serum, 96 Hrs” value [2, 9] was 2.69 and 2.89 and 3.09 and the “Drug level in serum, 240 Hrs” value [2, 9] was 6.31 and 6.37 and 7.06. For the same molecule, the “AVG drug level in Cerebral Spinal Fluid, Day 10” value (shortened to “AVG drug level … Day 10”) [3, 7] was 0.09, the “Drug level in Cerebral Spinal Fluid, Day 10” value [3, 7] was 0.09 and 0.07 and 0.11 and the “AVG drug level … Day 10” value [3, 8] was 0.16. The “Drug level in Cerebral Spinal Fluid, Day 10” value [3, 8] was 0.12 and 0.14 and 0.21, the “AVG drug level … Day 10” value [3, 9] was 0.22 and the “Drug level in Cerebral Spinal Fluid, Day 10” value [3, 9] was 0.23 and 0.17 and 0.27. The “concentration in the cerebral spinal fluid compared with Toltrazuril” value ([3]; after treatment of horses with Toltrazuril) was “essentially equivalent to the concentration of Toltrazuril itself”, the “toxicity to the BT cells” value [4] was “not toxic” and the concentration at 0.25 h ([5]; horse, blood, po, 10 mg/kg, suspension, 0.25 h post treatment, one value per horse (A-F), read-out: Concentration in mg/l of Blood, 0.25 hours) was 0.01 mg/L. For the same molecule, the concentration at 24 h ([5]; horse, blood, po, 10 mg/kg, suspension, 24 h post treatment, one value per horse (A-F), read-out: Concentration in mg/l of Blood, 24 hours) was 0.324 mg/L, the “levels in serum/bloodstream of horses receiving Toltrazuril (in words)” value [5] was “relatively high levels” and the “Concentration in mg/l of Blood, 0.25 hours” value ([5]; suspension, 0.25 h post treatment, one value per horse (A-F), 10 mg/kg, 15 min) was under 0.01 mg/L. For the same molecule, the “Concentration in mg/l of Blood, 6 hours” value ([5]; suspension, 6 h post treatment, one value per horse (A-F), 10 mg/kg, 360 min) was 0.061 mg/L, the “Concentration in mg/l of Blood, 24 hours” value ([5]; suspension, 24 h post treatment, one value per horse (A-F), 10 mg/kg, 1440 min) was 0.255 mg/L and 0.315 mg/L and 0.231 mg/L and 0.192 mg/L and the inhibition at 0.1 µg/mL ([6]; 0.1 μg/mL, read-out: Percent Inhibition of Cell Destruction, 0.1 μg/mL) was 0%. It also gave an inhibition at 1 µg/mL ([6]; 1 μg/mL, read-out: Percent Inhibition of Cell Destruction, 1 μg/mL) of 40%, an inhibition at 5 µg/mL ([6]; 5.0 μg/mL, read-out: Percent Inhibition of Cell Destruction, 5.0 μg/mL) of 90% and an inhibition at 10 µg/mL ([6]; 10 μg/mL, read-out: Percent Inhibition of Cell Destruction, 10 μg/mL) of 100%.

Reference: US6150361A, “Triazineone compounds for treating diseases due to sarcosystis, neospora and toxoplasma” (Bayer Corporation, priority 1998, dated 2000)
